Reference: US20230123334A1, “AMINO LIPID COMPOUND, PREPARATION METHOD THEREFOR, AND APPLICATION THEREOF” (SHENZHEN SHENXIN BIOTECHNOLOGY CO., LTD., priority 2020, published 2023)

Columns and labels:
[1] = system: HEK293 cells; experiment: Preliminary screening as mRNA vectors, EGFP mRNA transfection of HEK293 cells; format: cell-based; settings: HEK293 cells, 96-well plates, EGFP mRNA 50 ng per well; percentage of GFP fluorescent cells relative to total number of cells (Hoechst)
In short: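 HEK293 cells in DMEM plus 10% FBS transfected in 96-well format with 50 ng EGFP mRNA per well; Lipofectamine2000 served as positive control. Read-out is the percentage of GFP-fluorescent cells among total cells, counted by Hoechst nuclear stain.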

[2] = system: HEK293 cells; experiment: Preliminary screening as DNA vectors, GFP transfection of HEK293 cells; format: cell-based; settings: HEK293 cells; lipid/DOPE liposome with 75 ng plasmid DNA (psin-EGFP-IRES-Puro); number of cells expressing GFP divided by total number of nuclei (Hoechst)
In short: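 HEK293 cells in DMEM/10% FBS transfected with 75 ng EGFP plasmid per well complexed with amino lipid/DOPE liposomes in pH 5.6 sodium acetate. Hoechst nuclear stain added 20-24 h post-transfection, then cells cultured another 20-24 h. Confocal imaging gives GFP-positive cells as % of total nuclei.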

SMILES	Absolute mRNA transfection efficiency in HEK293 cells [1] [%]	Absolute DNA transfection efficiency in HEK293 cells [2] [%]
CCCCCCCCCCCCCCCCNc1nc(NCCN2CCOCC2)nc(N(CCCCCCCCCCCC)CCCCCCCCCCCC)n1 [N16^2N12D2]	0.0	0.4
CCCCCCCCCCCNc1nc(NCCCCCCCC)nc(NCC2CCN(C)CC2)n1 [Compound N8N11D10]	0.2	0.3
CCCCCCCCCCCCN(CCCCCCCCCCCC)c1nc(NCCCCCC)nc(NCCN2CCCCC2)n1 [N6^2N12D4]	0.0	0.2
CCCCCCCCCCCCCCCCCCSc1nc(NCCCN(C)C)nc(SCCCCCCCC)n1 [Compound S8S18D6]	19.1	8.2
CCCCCCCCCNc1nc(NCCCCCC)nc(NCCCN2CCOCC2)n1 [Compound N6N9D8]	0.0	0.0
CCCCCCCCCCCCN(CCCCCCCCCCCC)c1nc(NCCCN(C)C)nc(N(CCCCCCCCCCCC)CCCCCCCCCCCC)n1 [2N12^2N12D6]	0.2	0.0
CCCCCCCCCCCCCCCCNc1nc(NCCCCCCCCCCCCC)nc(NCCN(CC)CC)n1 [Compound N13N16D7]	0.6	1.5
CCCCCCCCCCCCCCCCNc1nc(NCCCCCCCCCCCCCCC)nc(NCCN(CC)CC)n1 [Compound N15N16D7]	0.0	0.9
CCCCCCCCCCCCCCCCCCNc1nc(NCCCCCCCCCCCCCCC)nc(NCCCN2CCN(C)CC2)n1 [Compound N15N18D9]	0.0	0.7
CCCCCCCCCCCCNc1nc(NCCCCCCCCC)nc(NCCCN2CCOCC2)n1 [Compound N9N12D8]	0.0	0.0
CCCCCCCCCCCCCNc1nc(NCCCCCCCC)nc(NCCN(C)C)n1 [Compound N8N13D1]	0.0	2.2
CCCCCCCCCCCCNc1nc(NCCCCCC)nc(NCCN2CCCC2)n1 [Compound N6N12D3]	0.5	0.2
CCCCCCCCCNc1nc(NCCCCCCCC)nc(NCCCN(C)C)n1 [Compound N8N9D6]	0.0	0.4
CCCCCCCCCCCCNc1nc(NCCCCCCCCC)nc(NCCN2CCOCC2)n1 [Compound N9N12D2]	0.8	0.0
CCCCCCCCCCCCCCCNc1nc(NCCCCCCC)nc(NCCN2CCOCC2)n1 [Compound N7N15D2]	0.1	0.0
CCCCCCCCCCCCCNc1nc(NCCCCCCCCC)nc(NCCN2CCCC2)n1 [Compound N9N13D3]	4.6	1.0
CCCCCCCCCCCCCCCSc1nc(NCCN2CCCC2)nc(SCCCCCCCCCCC)n1 [Compound S11S15D3]	5.3	7.4
CCCCCCCCCCCCCCCSc1nc(NCCN(C)C)nc(SCCCCCCCCCC)n1 [Compound S10S15D1]	0.0	6.8
CCCCCCCCNc1nc(NCCCCCCC)nc(NCCN(C)C)n1 [Compound N7N8D1]	0.0	0.2
CCCCCCCCCCCCNc1nc(NCCCCCCCCC)nc(NCCN2CCN(C)CC2)n1 [Compound N9N12D5]	3.8	0.0
CCCCCCCCCCCCCCCNc1nc(NCCCCCCCCCCCCC)nc(NCCN2CCCC2)n1 [Compound N13N15D3]	4.7	1.4
CCCCCCCCNc1nc(NCCCCCCCC)nc(NCCN2CCCCC2)n1 [Compound N8N8D4]	0.2	0.0
CCCCCCCCCCCCSc1nc(NCCN2CCCCC2)nc(SCCCCCCCCCC)n1 [Compound S10S12D4]	3.4	12.0
CCCCCCCCCCCCCCCCCCNc1nc(NCCCCCCCCC)nc(NCCCN(C)C)n1 [Compound N9N18D6]	2.5	2.2

SMILES	Absolute mRNA transfection efficiency in HEK293 cells [1] [%]	Absolute DNA transfection efficiency in HEK293 cells [2] [%]
CCCCCCCCCCCSc1nc(NCCN2CCOCC2)nc(SCCCCCCCCC)n1 [Compound S9S11D2]	3.3	17.3
CCCCCCCCCCCCCCCCNc1nc(NCCCCCCCCCCCC)nc(NCCCN(C)C)n1 [Compound N12N16D6]	1.9	1.9
CCCCCCCCCCCCCCCCCCSc1nc(NCCCN2CCN(C)CC2)nc(SCCCCCCCCC)n1 [Compound S9S18D9]	4.0	0.0
CCCCCCCCCCCSc1nc(NCCN(C)C)nc(SCCCCCCCCC)n1 [Compound S9S11D1]	3.0	9.5
CCCCCCCCCCCCCCCCNc1nc(NCCCCCCCCC)nc(NCCN2CCN(C)CC2)n1 [Compound N9N16D5]	0.0	0.0
CCCCCCCCCCCSc1nc(NCCN2CCN(C)CC2)nc(SCCCCCCCCCCC)n1 [Compound S11S11D5]	28.7	3.4
CCCCCCCCCCCCCCCSc1nc(NCCCN2CCOCC2)nc(SCCCCCCCCCCCC)n1 [Compound S12S15D8]	3.2	3.1
CCCCCCCCCCCNc1nc(NCCCCCCCCCCC)nc(NCCN(CC)CC)n1 [Compound N11N11D7]	5.5	0.6
CCCCCCCCCCCCCCSc1nc(NCCN(C)C)nc(SCCCCCCCCCCCCCC)n1 [Compound S14S14D1]	0.0	0.1
CCCCCCCCCCCCCCCCCCSc1nc(NCC2CCN(C)CC2)nc(SCCCCCCCCCCCCCC)n1 [Compound S14S18D10]	1.5	1.7
CCCCCCCCCCCCCCCCCCNc1nc(NCCCCCC)nc(NCCN(CC)CC)n1 [Compound N6N18D7]	0.3	0.9
CCCCCCCCCCCCN(CCCCCCCCCCCC)c1nc(NCCCCCCCCC)nc(NCCN(CC)CC)n1 [N9^2N12D7]	0.2	0.0
CCCCCCCCCCCCCCCCSc1nc(NCCN(CC)CC)nc(SCCCCCCCCCCCC)n1 [Compound S12S16D7]	0.0	0.7
CCCCCCCCCCCCCCCCCCSc1nc(NCCCN2CCOCC2)nc(SCCCCCCCCCCCCCCCC)n1 [Compound S16S18D8]	1.9	0.3
CCCCCCCCCCCCCNc1nc(NCCCCCCCCC)nc(NCCN2CCCCC2)n1 [Compound N9N13D4]	0.5	0.0
CCCCCCCCCCCCCCSc1nc(NCC2CCN(C)CC2)nc(SCCCCCCCCCCCC)n1 [Compound S12S14D10]	30.4	6.5
CCCCCCCCCCCCCCCCCCSc1nc(NCC2CCN(C)CC2)nc(SCCCCCCCCCCCCCCCC)n1 [Compound S16S18D10]	3.0	0.8
CCCCCCCCCCCCSc1nc(NCC2CCN(C)CC2)nc(SCCCCCCCCCC)n1 [Compound S10S12D10]	91.0	13.7
CCCCCCCCCCCCCCCSc1nc(NCCN2CCCCC2)nc(SCCCCCCCCCCCCCCC)n1 [Compound S15S15D4]	1.5	1.5
CCCCCCCCCCCCCCCCCCNc1nc(NCCCCCCCCCCCCC)nc(NCCN(CC)CC)n1 [Compound N13N18D7]	1.3	3.7
CCCCCCCNc1nc(NCCCCCCC)nc(NCCN(C)C)n1 [Compound N7N7D1]	0.0	0.0
CCCCCCCCCCCNc1nc(NCCCCCC)nc(NCC2CCN(C)CC2)n1 [Compound N6N11D10]	0.0	0.0
CCCCCCCCCCCCSc1nc(NCCCN(C)C)nc(SCCCCCCCCCCCC)n1 [Compound S12S12D6]	2.6	3.9
CCCCCCCCCCCCCCSc1nc(NCCN2CCCC2)nc(SCCCCCCCCCCCCCC)n1 [Compound S14S14D3]	0.1	0.2
